Measured values from patent US11490644B2, “Co-Q10, krill oil and vitamin D” (RB HEALTH (US) LLC, priority 2015, dated 2022).
Like-named read-outs stand apart in the source and are kept apart here. Blank lines part the entries; values can stand above or below the molecule they belong to.

How the values were obtained:
Type in all cases: physicochemical
[1] = Influence of chelating agent on Co-Q10 stability; conditions: with the chelating agent
[2] = Antioxidant study: influence of antioxidant on Co-Q10 stability in krill oil and Vitamin D; conditions: for Amount of Co-Q10: in krill oil and Vitamin D with the antioxidant
Method: (§1) Several antioxidants were evaluated for their ability to stabilize Co-Q10 in krill oil and Vitamin D. The results are summarized in Table 2.

[3] = Stability of Co-Q10 and Co-QH in krill oil and Vitamin D mixtures, accelerated conditions; conditions: over the 12-week period; 40° C., 75% relative humidity
Method: Two formulations comprising Co-Q10 (Study I) and Co-QH (Study II) were evaluated for stability in krill oil and Vitamin D mixtures. The compositions were subjected to accelerated conditions (40° C., 75% relative humidity for up to 12 weeks), and the amounts of Co-Q10, Co-QH, and ubichromenol were evaluated at several time points.

[4] = Influence of antioxidant dosing on Co-Q10 stability
Method: as §1

[5] = antioxidant medium dose, 1 week
[6] = antioxidant medium dose, 2 weeks
[7] = antioxidant medium dose, Initial

Structure (SMILES): CC(=O)OO [Peracetic acid (PAA), Peracetic acid]
Amount of Co-Q10 ([1]; 1 week): 10 mg
Amount of Co-Q10 ([1]; 2 weeks): 0 mg
Amount of Co-Q10 ([1]; Initial): 137 mg

Structure (SMILES): NC(N)=S [Thiourea]
Ability to stabilize Co-Q10 in krill oil and Vitamin D (in words) ([2]; Table 2): degrades rapidly

Structure (SMILES): COc1c(O)c(C)c(C/C=C(\C)CC/C=C(\C)CC/C=C(\C)CC/C=C(\C)CC/C=C(\C)CC/C=C(\C)CC/C=C(\C)CC/C=C(\C)CC/C=C(\C)CCC=C(C)C)c(O)c1OC [Co-QH, ubiquinol]
Stability in krill oil and Vitamin D (in words) [3]: stable

Structure (SMILES): O=C1O[C@H]([C@@H](O)CO)C(O)=C1O [Ascorbic Acid]
Amount of Co-Q10 ([2]; 1 week): 133 mg
Amount of Co-Q10 ([2]; 2 weeks): 129 mg
Amount of Co-Q10 ([2]; Initial): 139 mg
Amount of Co-Q10 ([4]; antioxidant high dose, 1 week): 100 mg
Amount of Co-Q10 ([4]; antioxidant high dose, 2 weeks): 100 mg
Amount of Co-Q10 ([4]; antioxidant high dose, Initial): 109 mg
Amount of Co-Q10 ([4]; antioxidant low dose, 1 week): 91 mg
Amount of Co-Q10 ([4]; antioxidant low dose, 2 weeks): 71 mg
Amount of Co-Q10 ([4]; antioxidant low dose, Initial): 137 mg
Amount of Co-Q10 [4, 5]: 136 mg
Amount of Co-Q10 [4, 6]: 138 mg
Amount of Co-Q10 [4, 7]: 145 mg

Structure (SMILES): COC1=C(OC)C(=O)C(C/C=C(\C)CC/C=C(\C)CC/C=C(\C)CC/C=C(\C)CC/C=C(\C)CC/C=C(\C)CC/C=C(\C)CC/C=C(\C)CC/C=C(\C)CCC=C(C)C)=C(C)C1=O [Co-Q10, Coenzyme Q10]
Stability in krill oil and Vitamin D (in words) [3]: unstable

More lines, now with the values ahead:

Ability to stabilize Co-Q10 in krill oil and Vitamin D (in words) [2]: degrades rapidly
Amount of Co-Q10 ([2]; 1 week): 48 mg
Amount of Co-Q10 ([2]; 2 weeks): 25 mg
Amount of Co-Q10 ([2]; Initial): 142 mg
Amount of Co-Q10 ([4]; antioxidant high dose, 1 week): 43 mg
Amount of Co-Q10 ([4]; antioxidant high dose, 2 weeks): 26 mg
Amount of Co-Q10 ([4]; antioxidant high dose, Initial): 146 mg
Amount of Co-Q10 ([4]; antioxidant low dose, 1 week): 16 mg
Amount of Co-Q10 ([4]; antioxidant low dose, 2 weeks): 14 mg
Amount of Co-Q10 ([4]; antioxidant low dose, Initial): 142 mg
Amount of Co-Q10 [4, 5]: 23 mg
Amount of Co-Q10 [4, 6]: 16 mg
Amount of Co-Q10 [4, 7]: 146 mg
Structure (SMILES): C=CCc1ccc(O)c(OC)c1 [Eugenol]

Amount of Co-Q10 ([1]; 1 week): 10 mg
Amount of Co-Q10 ([1]; 2 weeks): 0 mg
Amount of Co-Q10 ([1]; Initial): 125 mg
Structure (SMILES): O=C(O)CN(CCN(CC(=O)O)CC(=O)O)CC(=O)O [EDTA]
